From patent US20240415778A1, “ORAL PREPARATION CONTAINING PROGESTOGEN, AND PREPARATION METHOD AND USE” (priority 2021, published 2024)
“Also recorded” adds a separate entry of the source. Like-named read-outs stand apart in the source and are kept apart here.

Tests used:
[1] = Solubility property of 17-HPC in different excipients; assay type: physicochemical
Excerpt: However, the stable solubility concentrations vary for each excipient, with specific values provided in the last column of Table 2.

[2] = Acceptable daily intake (ADI) of excipients
Excerpt: The applicant has previously collaborated with other entities to develop an oral formulation of 17-α hydroxyprogesterone and obtained a patent for it.

[3] = WHO-JECFA database or supplier values; cited from earlier work

Compound | Suggested working concentrations based on physical stability and saturated solubility results ([1]; Glycerol Monooleate (Maisine ® CC)) [mg/g] | Suggested working concentrations based on physical stability and saturated solubility results ([1]; Mono-Octanoin Glyceride (Capmul 808G)) [mg/g] | Suggested working concentrations based on physical stability and saturated solubility results ([1]; Oleic Acid) [mg/g] | Suggested working concentrations based on physical stability and saturated solubility results ([1]; Oleic Acid Glyceride (Peceol ®)) [mg/g] | Suggested working concentrations based on physical stability and saturated solubility results ([1]; Olive Oil) | Suggested working concentrations based on physical stability and saturated solubility results ([1]; PEG15 Hydroxystearate (Kolliphor ® HS15)) | Suggested working concentrations based on physical stability and saturated solubility results ([1]; PEG35 Castor Oil (Kolliphor ® ELP)) [mg/g] | Suggested working concentrations based on physical stability and saturated solubility results ([1]; PEG40 Hydrogenated Castor Oil (Kolliphor ® RH40)) | Suggested working concentrations based on physical stability and saturated solubility results ([1]; Propylene Glycol Monocaprylate (Capryol ® 90)) [mg/g] | Suggested working concentrations based on physical stability and saturated solubility results ([1]; Propylene Glycol Monolaurate (Lauroglycol ® 90)) [mg/g] | ADI/Weight 60 kg [2] | Acceptable Daily Intake (ADI) [3] | ADI/Weight 60 kg ([2]; for 60 kg body weight)
CCCCCC(=O)O[C@]1(C(C)=O)CC[C@H]2[C@@H]3CCC4=CC(=O)CC[C@]4(C)[C@H]3CC[C@@]21C [Formulation 17-HPC, hydroxyprogesterone caproate] | 65 | 120 | 70 | 50 | insufficient to meet the meaningful solubility concentration required for adult formulations | cannot achieve stable solubility; also recorded: Chemically unstable | 30 | cannot achieve stable solubility; also recorded: Chemically unstable | 150 | 100 | – | – | –
CCCCCCCC(=O)OCC(O)CO (centres unmarked) [Glycerol monocaprylate] | – | – | – | – | – | – | – | – | – | – | none | none | –
Propylene glycol monocaprylate | – | – | – | – | – | – | – | – | – | – | – | 56 mg/kg/day | 3.36
